In ChEMBL document CHEMBL4020848, “Antibacterial Activity Affected by the Conformational Flexibility in Glycine-Lysine Based α-Helical Antimicrobial Peptides” (J Med Chem, 2018):
Values belong to the substance of their own block, whether it stands above or below them. The source made the active and inactive calls. The calls are words filed in the database; no cut-off is given here.

Legend:
[1] = tested on: Klebsiella pneumoniae; test: Antibacterial activity against clinical isolates of Klebsiella pneumoniae after 18 hrs by microdilution method; assay type: functional
[2] = tested on: Staphylococcus aureus; test: Growth inhibition of Staphylococcus aureus ATCC 25923 measured every 10 mins for 4 hrs; assay type: functional
[3] = tested on: Acinetobacter baumannii; test: Antibacterial activity against Acinetobacter baumannii ATCC 19606 after 18 hrs by microdilution method; assay type: functional; settings: ATCC 19606 = CIP 70.34 = JCM 6841, 18 h
[4] = tested on: Acinetobacter baumannii; test: Bactericidal activity against Acinetobacter baumannii ATCC 19606 after 18 hrs by microdilution method; assay type: functional; settings: ATCC 19606 = CIP 70.34 = JCM 6841, 18 h, read-out: MBC=>99.9
[5] = Selectivity index, ratio of HC50 for human RBC to MIC for Pseudomonas aeruginosa
[6] = tested on: Staphylococcus aureus; test: Antibacterial activity against Staphylococcus aureus ATCC 25923 after 18 hrs by microdilution method; assay type: functional; settings: ATCC 25923, 18 h
[7] = tested on: Acinetobacter baumannii; test: Bactericidal activity against clinical isolates of Acinetobacter baumannii after 18 hrs by microdilution method; assay type: functional; settings: read-out: MBC=>99.9
[8] = tested on: Escherichia coli; test: Bactericidal activity against Escherichia coli ATCC 25922 after 18 hrs by microdilution method; assay type: functional; settings: for MBC: ATCC 25922, 18 h, read-out: MBC=>99.9
[9] = Selectivity index, ratio of HC50 for human RBC to MIC for Klebsiella pneumoniae
[10] = Selectivity index, ratio of HC50 for human RBC to MIC for Staphylococcus aureus ATCC 25923
[11] = Selectivity index, ratio of HC50 for human RBC to MIC for Klebsiella pneumoniae ATCC 13883
[12] = tested on: Escherichia coli; test: Induction of membrane permeabilization in Escherichia coli ATCC 25922 assessed as propidium iodide uptake preincubated up to 60 mins followed by propidium iodide addition by flow cytometry; assay type: functional
[13] = tested on: Escherichia coli; test: Growth inhibition of Escherichia coli ATCC 25922 measured every 10 mins for 4 hrs; assay type: functional
[14] = tested on: Klebsiella pneumoniae; test: Antibacterial activity against Klebsiella pneumoniae ATCC 13883 after 18 hrs by microdilution method; assay type: functional; settings: ATCC 13883, 18 h
[15] = tested on: Escherichia coli; test: Induction of membrane permeabilization in Escherichia coli ATCC 25922 assessed as massive cell disruption/collapse at MBC after 1 hr by atomic force microscopic method; assay type: functional
[16] = tested on: Escherichia coli; test: Induction of membrane permeabilization in Escherichia coli ATCC 25922 assessed as bleb formation at MIC after 1 hr by atomic force microscopic method; assay type: functional
[17] = Selectivity index, ratio of HC50 for human RBC to MIC for Acinetobacter baumannii ATCC 19606
[18] = tested on: Escherichia coli; test: Induction of membrane permeabilization in Escherichia coli ATCC 25922 assessed as loss of pili/flagella at MBC after 1 hr by atomic force microscopic method; assay type: functional
[19] = tested on: Staphylococcus aureus; test: Antibacterial activity against clinical isolates of Staphylococcus aureus after 18 hrs by microdilution method; assay type: functional
[20] = tested on: Escherichia coli; test: Bactericidal activity against clinical isolates of Escherichia coli after 18 hrs by microdilution method; assay type: functional; settings: read-out: MBC=>99.9
[21] = tested on: Klebsiella pneumoniae; test: Bactericidal activity against clinical isolates of Klebsiella pneumoniae after 18 hrs by microdilution method; assay type: functional; settings: read-out: MBC=>99.9
[22] = tested on: Pseudomonas aeruginosa; test: Bactericidal activity against Pseudomonas aeruginosa ATCC 27853 after 18 hrs by microdilution method; assay type: functional; settings: ATCC 27853, 18 h, read-out: MBC=>99.9
[23] = tested on: Pseudomonas aeruginosa; test: Antibacterial activity against clinical isolates of Pseudomonas aeruginosa after 18 hrs by microdilution method; assay type: functional
[24] = tested on: Escherichia coli; test: Induction of membrane permeabilization in Escherichia coli ATCC 25922 assessed as surface indentations at MIC after 1 hr by atomic force microscopic method; assay type: functional
[25] = tested on: Pseudomonas aeruginosa; test: Bactericidal activity against clinical isolates of Pseudomonas aeruginosa after 18 hrs by microdilution method; assay type: functional; settings: read-out: MBC=>99.9
[26] = Selectivity index, ratio of HC50 for human RBC to MIC for Pseudomonas aeruginosa ATCC 27853
[27] = Selectivity index, ratio of HC50 for human RBC to MIC for Escherichia coli
[28] = tested on: Escherichia coli; test: Antibacterial activity against Escherichia coli ATCC 25922 after 18 hrs by microdilution method; assay type: functional
[29] = tested on: Escherichia coli; test: Induction of membrane permeabilization in Escherichia coli ATCC 25922 assessed as formation of pores/cavities at MIC after 1 hr by atomic force microscopic method; assay type: functional
[30] = tested on: Escherichia coli; test: Ratio of MIC to IC50 for Escherichia coli ATCC 25922; assay type: functional
[31] = tested on: Escherichia coli; test: Induction of membrane permeabilization in Escherichia coli ATCC 25922 assessed as propidium iodide uptake at MIC preincubated for 15 mins followed by propidium iodide addition by flow cytometry relative to control; assay type: functional
[32] = tested on: Staphylococcus aureus; test: Bactericidal activity against clinical isolates of Staphylococcus aureus after 18 hrs by microdilution method; assay type: functional; settings: read-out: MBC=>99.9
[33] = tested on: Acinetobacter baumannii; test: Antibacterial activity against clinical isolates of Acinetobacter baumannii after 18 hrs by microdilution method; assay type: functional
[34] = Selectivity index, ratio of HC50 for human RBC to MIC for Acinetobacter baumannii
[35] = Selectivity index, ratio of HC50 for human RBC to MIC for Staphylococcus aureus
[36] = tested on: Klebsiella pneumoniae; test: Bactericidal activity against Klebsiella pneumoniae ATCC 13883 after 18 hrs by microdilution method; assay type: functional; settings: ATCC 13883, 18 h, read-out: MBC=>99.9
[37] = Selectivity index, ratio of HC50 for human RBC to MIC for Escherichia coli ATCC 25922
[38] = tested on: Pseudomonas aeruginosa; test: Antibacterial activity against Pseudomonas aeruginosa ATCC 27853 after 18 hrs by microdilution method; assay type: functional; settings: ATCC 27853, 18 h
[39] = tested on: Staphylococcus aureus; test: Bactericidal activity against Staphylococcus aureus ATCC 25923 after 18 hrs by microdilution method; assay type: functional; settings: ATCC 25923, 18 h, read-out: MBC=>99.9
[40] = tested on: Escherichia coli; test: Antibacterial activity against clinical isolates of Escherichia coli after 18 hrs by microdilution method; assay type: functional
[41] = tested on: Escherichia coli; test: Induction of membrane permeabilization in Escherichia coli ATCC 25922 assessed as loss of pili/flagella at MIC after 1 hr by atomic force microscopic method; assay type: functional
[42] = tested on: Escherichia coli; test: Induction of membrane permeabilization in Escherichia coli ATCC 25922 assessed as incipient damage at 0.25 uM after 1 hr by atomic force microscopic method; assay type: functional
[43] = Cytotoxicity against human peripheral blood leukocytes assessed as cell viability at 100 uM after 4 hrs by acridine orange/ethidium bromide staining based fluorescence microscopic method relative to control; design: species or system Leukocyte; settings: read-out: Activity
[44] = Cytotoxicity against human peripheral blood leukocytes assessed as cell viability at 50 uM after 24 hrs by acridine orange/ethidium bromide staining based fluorescence microscopic method relative to control; design: species or system Leukocyte; settings: read-out: Activity
[45] = Cytotoxicity against human peripheral blood leukocytes assessed as cell viability at 100 uM after 24 hrs by acridine orange/ethidium bromide staining based fluorescence microscopic method relative to control; design: species or system Leukocyte; settings: read-out: Activity
[46] = Cytotoxicity against human peripheral blood leukocytes assessed as cell viability at 50 uM after 4 hrs by acridine orange/ethidium bromide staining based fluorescence microscopic method relative to control; design: species or system Leukocyte; settings: read-out: Activity
[47] = Genotoxicity in human peripheral blood leukocytes assessed as DNA damage up to 100 uM up to 24 hrs by alkaline comet assay; assay type: toxicity, cell-based; settings: leukocyte
[48] = tested on: Escherichia coli; test: Induction of membrane permeabilization in Escherichia coli ATCC 25922 assessed as massive damage at 0.5 to 1 uM after 1 hr by atomic force microscopic method; assay type: functional

MIC [1]: 8 µM
MIC [3]: 1 to 2 µM
MIC [6]: 16 to 32 µM
IC50 [12]: 600 nM
MIC [14]: 2 to 4 µM
MIC [19]: 16 µM
MIC [23]: 8 to 16 µM
MIC ([28]; ATCC 25922, 18 h): 4 µM
MIC [33]: > 64 µM
MIC [38]: 8 to 16 µM
MIC [40]: 64 µM
Substance: H-KIAKGALKALKIAKGALKAL-NH2
IC50 [2]: 1600 nM
MBC [4]: 2 µM
Selectivity Index [5]: 6 to 12
MBC [7]: > 64 µM
MBC [8]: 16 µM
Selectivity Index [9]: 12
Selectivity Index [10]: 3 to 6
Selectivity Index [11]: 25 to 50
IC50 [13]: 300 nM
Activity [15]: Active
Activity [16]: Active
Selectivity Index [17]: 50 to 100
Activity [18]: Active
MBC [20]: > 64 µM
MBC [21]: 16 µM
MBC [22]: 16 to 32 µM
Activity [24]: Active
MBC [25]: 16 µM
Selectivity Index [26]: 6 to 12
Selectivity Index [27]: < 1
Activity [29]: Active
Ratio [30]: >10
Activity [31]: >80%
MBC [32]: 16 µM
Selectivity Index [34]: < 1
Selectivity Index [35]: 6
MBC [36]: 4 µM
Selectivity Index [37]: 25
MBC [39]: 32 µM

Substance: COLISTIN
MBC=>99.9 [8]: 0.5 µM
Activity [18]: Active
MIC [28]: 0.5 µM
Activity [41]: Active

MIC [1]: 4 µM
MIC [3]: 0.5 to 1 µM
MIC [6]: 8 to 16 µM
IC50 [12]: 500 nM
MIC [14]: 2 µM
MIC [19]: 4 to 8 µM
MIC [23]: 2 to 4 µM
MIC ([28]; ATCC 25922, 18 h): 0.25 to 0.5 µM
MIC [33]: 0.5 µM
MIC [38]: 2 µM
MIC [40]: 4 µM
Substance: H-KIAKGALKALKIAKVALKAL-NH2
IC50 [2]: 800 nM
Activity [42]: Active
MBC [4]: 1 µM
Selectivity Index [5]: 7 to 15
viability at 4 h, 100 µM [43]: 89%
MBC [7]: 1 µM
MBC [8]: 0.5 to 1 µM
Selectivity Index [9]: 7
viability at 24 h, 50 µM [44]: 92%
Selectivity Index [10]: 2 to 4
Selectivity Index [11]: 15
IC50 [13]: 350 nM
Activity [15]: Active
Activity [16]: Active
Selectivity Index [17]: 30 to 60
Activity [18]: Active
MBC [20]: 8 µM
viability at 24 h, 100 µM [45]: 83%
MBC [21]: 8 µM
MBC [22]: 4 µM
Activity [24]: Active
MBC [25]: 4 µM
Selectivity Index [26]: 15
Selectivity Index [27]: 7
Activity [29]: Active
MBC [32]: 8 µM
Selectivity Index [34]: 60
Selectivity Index [35]: 4 to 8
viability at 4 h, 50 µM [46]: 92%
MBC [36]: 2 µM
Selectivity Index [37]: 60 to 120
Activity [47]: Non-Toxic
MBC [39]: 8 to 16 µM
Activity [48]: Active
